From PMC10787068, “Targeting the Mitochondrial Chaperone TRAP1 Alleviates Vascular Pathologies in Ischemic Retinopathy” (Advanced Science, 2023)
Entries after “also recorded” stand apart in the source; their conditions may differ. Non-standard residues stand in square brackets, D forms with d. Residues, ends and D or L forms follow the SMILES beside them. *: point of attachment. Nle = CCCC[C@H](N)C(=O)O; Cbz = O=C(OCc1ccccc1)*

How the values were obtained:
Assay type in all cases: cell-based, human
[1] = system: calpain‐1; assay: Calpain‐1 activation (autolysis, western blotting) in MIO‐M1 cells; settings: MIO‐M1 cells with 3 µM gamitrinib or 0.5 µM MitoQ, 6 h, hypoxia; BAPTA 10 µM, ALLN 10 µM
Experimental: (§1) Figure 5 TRAP1 inhibition induces mPTP opening, mitochondrial calcium discharge, and calpain‐1 activation. A) Visualization of cytoplasmic calcium. Fluo‐4 AM‐labeled MIO‐M1 cells were incubated with the TRAP1 inhibitors gamitrinib and MitoQ^[ [32], [41] ^] for 6 h or thapsigargin for 30 min under hypoxia, and analyzed by confocal microscopy. Scale bars, 10 µm and 2 µm (inset). […] MIO‐M1 cells were treated with a TRAP1 inhibitor, 3 µM gamitrinib or 0.5 µM MitoQ, for 6 h under hypoxia (n = 4). Enzyme activity was measured using a fluorogenic calpain substrate as described in the Experimental Section. C) Restored HIF1α expression upon CypD inhibition. MIO‐M1 cells were incubated with control or CypD‐targeting siRNAs, treated with the TRAP1 inhibitor MitoQ for 6 h under hypoxia, harvested, and analyzed by western blotting. Black and red arrows indicate pro and autolyzed forms of calpain‐1, respectively. […] MIO‐M1 cells were incubated with TRAP1‐targeting siRNAs for 48 h, exposed to hypoxia for 6 h, harvested, and analyzed by qPCR (n = 4). […] Cells were then analyzed by flow cytometry to detect cytoplasmic calcium. […] MIO‐M1 cells were incubated with TRAP1 inhibitors, 3 µM gamitrinib, and 0.5 µM MitoQ, and a cell‐permeable calcium chelator, BAPTA (10 µM), for 6 h as indicated under hypoxia and analyzed by western blotting. […] Data information: Data are expressed as mean ± SEM. […]

[2] = system: HIF1α; assay: HIF1α degradation in MIO‐M1 cells under hypoxia (western blotting); settings: western blotting; for effect of co-treatment on HIF1α degradation triggered by TRAP1 inhibition: MIO‐M1 cells with gamitrinib or MitoQ, 6 h, hypoxia, BAPTA 10 µM, ALLN 10 µM
[3] = system: cytoplasmic Hsp90; assay: Cytoplasmic Hsp90 inhibition in MIO-M1 cells (western blotting); settings: 6 hr
Experimental: Cells and tissue samples were lysed using RIPA buffer (50 mM Tris, pH 8.0, 150 mM NaCl, 1% NP‐40, and 0.25% N‐deoxycholate) containing protease and phosphatase inhibitor cocktails (Roche). Lysates were separated by SDS‐PAGE and transferred to PVDF membranes. The membranes were blocked with 10% skim milk prepared in TBST (TBS (50 mM Tris and 150 mM NaCl, pH 7.6) containing 0.05% Tween‐20) for 1 h at RT and incubated with primary antibodies in antibody diluent solution (TBS containing 3 mM sodium azide and 0.1% BSA) overnight at 4 °C. After washing with TBST, the membranes were incubated with secondary antibodies for 1 h in 10% skim milk prepared in TBST. Finally, the membranes were washed three times with TBST, treated with ECL solution (Bio‐Rad; Hercules, CA, USA), and analyzed using a LAS4000 system (GE Healthcare; Chicago, IL, USA).
inhibitor) and gamitrinib as indicated for 6 hr, harvested, and analyzed by western blotting.
C) Cytoplasmic Hsp90 inhibition. MIO-M1
cells were incubated with DMAG (an Hsp90 inhibitor) as indicated for 6 hr under normoxia
or hypoxia and analyzed by western blotting.

[4] = system: MIO‐M1 cells; assay: Cytoplasmic calcium (Fluo‐4 AM) in MIO‐M1 cells; settings: Fluo‐4 AM‐labeled MIO‐M1 cells under hypoxia; MitoQ 6 h, thapsigargin 30 min
Experimental: as §1

[5] = system: Trap1 KO MIO-M1 cells; assay: TRAP1 inhibitor effects in Trap1 KO MIO‐M1 cells
Experimental: MIO‐M1 Trap1 KO cell lines were generated using CRISPR/Cas9‐derived RNA‐guided endonucleases (Toolgen; Seoul, Republic of Korea). MIO‐M1 cells were co‐transfected with the Cas9 vector and TRAP1‐sgRNA expression vector (sgRNA sequence 1; 5′‐[…]‐3′ and sequence 2; 5′‐[…]‐3′) using jetPRIME transfection reagent (Polyplus; Illkirch‐Graffenstaden, France). Transfected cells were selected in culture medium containing […] puromycin (Sigma). Single‐cell colonies were collected using a cloning cylinder (I.D. × H 6.4 mm × 8 mm; Sigma) and analyzed using T7 endonuclease I to confirm Trap1 KO.
Supplementary Figure 16. Calpain-1 autolysis and HIF1α degradation in Trap1 […]
A) HIF1α degradation and calpain-1 autolysis in Trap1 knockout (KO) MIO-M1 cells. Trap1 KO MIO-M1 cells were generated as described in the Experimental Section and incubated in hypoxia for 6 hr, followed by analysis using western blotting. Under hypoxia, HIF1α degradation and autoproteolysis of calpain-1 were found in Trap1 KO MIO-M1 cells, when compared with wild type (WT) cells. […]
cell lines were established using MIO-M1 cells. WT and KO cells were incubated with MitoQ for 6 hr under hypoxia and analyzed by western blotting. Trap1 KO reduced the expression of […]
Quantification of the HIF1α protein level. HIF1α western blot density was analyzed and compared. Data are expressed as mean ± SEM from four independent experiments.
C) Cytoplasmic calcium concentration. WT and Trap1-KO MIO-M1 cells were labeled with […]
Fluo-4 AM, incubated with 3 μM gamitrinib or 1 μM MitoQ for 6 hr under hypoxia, collected, and analyzed by flow cytometry. Data information: Data are expressed as mean ± SEM.
Student t-test, ***P < 0.001; ns, not significant. […]

[6] = system: calpain; assay: Calpain activity assay in MIO‐M1 cells; settings: 3 µM gamitrinib or 0.5 µM MitoQ, 6 h under hypoxia, fluorogenic calpain substrate, n = 4
Experimental: as §1

For `CCCC[C@@H](C=O)NC(=O)[C@H](CC(C)C)NC(=O)[C@H](CC(C)C)NC(C)=O` [ALLN] (Ac-Leu-Leu-[Nle]-aldehyde), the “effect of co-treatment on calpain‐1 activation triggered by TRAP1 inhibition” value [1] was “fully reversed” and the “effect of co-treatment on HIF1α degradation triggered by TRAP1 inhibition” value [2] was “fully reversed”.

With `O=C(O)CN(CC(=O)O)c1ccccc1OCCOc1ccccc1N(CC(=O)O)CC(=O)O` [BAPTA, 1,2‐bis (o‐aminophenoxy) ethane‐N, N, N', N'‐tetraacetic acid] the “effect of co-treatment on calpain‐1 activation triggered by TRAP1 inhibition” value [1] was “fully reversed” and the “effect of co-treatment on HIF1α degradation triggered by TRAP1 inhibition” value [2] was “fully reversed”.

For `CO[C@H]1/C=C\C=C(/C)C(=O)NC2=CC(=O)C(NCCN(C)C)=C(C[C@@H](C)C[C@H](OC)[C@H](O)[C@@H](C)/C=C(\C)[C@@H]1OC(N)=O)C2=O` [DMAG, 17‐Dimethyl‐aminothylamino‐17‐demethoxy‐geldanamycin], the “stress response protein Hsp70 level” value [3] was “upregulated” and the “stability of HIF1α” value ([2]; MIO-M1 cells, 6 hr under normoxia or hypoxia) was “did not affect”.

`COC(=O)CNC(=O)C(=O)OC` [DMOG, dimethyloxalylglycine] was tested, and the “effect of co-treatment on HIF1α degradation triggered by TRAP1 inhibition” value [2] was “did not affect; also recorded: unaffected”.

For `CC(C)C[C@@H](C=O)NC(=O)[C@H](CC(C)C)NC(=O)[C@H](CC(C)C)NC(=O)OCc1ccccc1` [MG132] (Cbz-Leu-Leu-Leu-aldehyde), the “effect of co-treatment on HIF1α degradation triggered by TRAP1 inhibition” value [2] was “completely restored; also recorded: completely blocked”.

With `CC(=O)N[C@@H](CSC(=O)[C@]1([C@@H](O)C(C)C)NC(=O)[C@H](C)[C@@H]1O)C(=O)O` [lactacystin] the “effect of co-treatment on HIF1α degradation triggered by TRAP1 inhibition” value [2] was “not effectively restored; also recorded: did not”.

For `O=C(O)CCC(=O)O` [succinate], the “effect of co-treatment on HIF1α degradation triggered by TRAP1 inhibition” value [2] was “did not affect; also recorded: unaffected”.

`C/C=C(/C)C(=O)O[C@H]1C(C)=C2[C@H]([C@@H]1OC(=O)CCCCCCC)[C@@](C)(OC(C)=O)C[C@H](OC(=O)CCC)[C@@]1(O)[C@H]2OC(=O)[C@@]1(C)O` [thapsigargin] was tested, and the cytoplasmic calcium [4] was “substantial calcium release”.

gamitrinib was tested, and the “cytosolic calcium concentration in Trap1−/− cells” value ([5]; 3 μM gamitrinib or 1 μM MitoQ, 6 hr under hypoxia, Fluo-4 AM flow cytometry) was “did not affect”, the “HIF1α expression in Trap1−/− cells” value ([5]; 6 hr under hypoxia, western blotting) was “did not affect” and the “calpain‐1 activation in Trap1−/− cells” value ([5]; hypoxia) was “did not affect”. For the same compound, the calpain enzyme activity [6] was “Calpain activation”.
